{"source": "patent US8198260B2", "about": "“Composition for the prevention and/or treatment of disorders due to abnormal lipid metabolism, comprising propionyl L-carnitine and chitosan” (Sigma-Tau Industrie Farmaceutiche Riunite SpA, priority 1999, dated 2012)", "key": {"[1]": {"tested_on": "male Wistar rats on atherogenic diet", "assay": "Experimental atherosclerosis tests (atherogenic diet for six weeks)", "format": "in vivo", "details": "100 mg/kg of each component", "description": "D2 200 mUST/g diet was administered for six weeks consecutively to different groups of male Wistar rats.\nWhile one group of rats served as a control group, the other groups were administered chitosan (100 mg/kg) or propionyl L-carnitine (100 mg/kg) or chitosan (100 mg/kg) plus propionyl L-carnitine (100 mg/kg).\nAnother group of animals was administered acetyl L-carnitine (100 mg/kg) and butyryl L-carnitine (100 mg/kg) in addition to chitosan and propionyl L-carnitine."}, "[2]": {"tested_on": "experimentally obese rats", "assay": "Tests in experimentally obese rats (lipogenic diet for fifteen days)", "format": "in vivo, Wistar rats", "description": "In these tests, male Wistar rats aged approximately two months were administered a lipogenic diet containing 50% glucose, 20% casein, 4% cellulose, 1% hazel nut oil, 18% starch, 2% vitamin mixture, and 5% salt mixture. The diet was administered for fifteen days consecutively to different groups of rats, one of which served as a control group, whereas the remaining groups were administered daily, per 100 g of diet, 2 g of propionyl L-carnitine or 1 g of chitosan, or the two compounds in combination at the same doses.\nAnother group was also administered acetyl L-carnitine (2 g/100 g diet) and butyryl L-carnitine (0.5 g/100 g diet) in addition to propionyl L-carnitine and chitosan.\nAt the end of the fifteenth day since the beginning of the diet, feed consumption and increase in body weight were calculated for each group of rats."}, "[3]": {"tested_on": "experimentally hypercholesterolaemic rabbits", "assay": "Tests in experimentally hypercholesterolaemic rabbits (plasma lipoproteins)", "format": "in vivo, New Zealand rabbits", "description": "Another type of experiment was conducted in New Zealand rabbits kept on a hypercholesterolaemic diet for forty days and treated with alkanoyl L-carnitine, chitosan or with the two types of compounds in combination. In these tests, 0.5% by weight of cholesterol was added to the normal diet of the rabbits consisting of 150 g/day and containing 2% fats, 20% fibres and 11% ashes.\nWhile one group of animals was used as a control group, the remaining groups were treated for six days with propionyl L-carnitine (2 g/100 g diet), chitosan (1 g/100 g diet), or propionyl L-carnitine+acetyl L-carnitine+butyryl L-carnitine (1 g+1 g+1 g/100 g diet) or with chitosan plus propionyl L-carnitine or chitosan plus the alkanoyl carnitine complex at the doses indicated above.\nAt the end of the fortieth day of treatment blood samples were taken from the ear vein from all animals and the plasma was used to calculate lipoprotein content in the various fractions (VLDL, LDL, HDL) after ultracentrifuging according to the method described by Noble (Noble R. P., J. Lipid Res., 9:693, 1968)."}, "[4]": {"details": "Day 40 of 0.5% cholesterol diet"}}, "data": [{"compound": "CCC(=O)O[C@H](CC(=O)[O-])C[N+](C)(C)C", "note": "[Propionyl L-carnitine, propionyl L-carnitine]", "values": [{"measurement": "Protective effect against atherosclerotic lesions induced by the atherogenic diet", "setting": "[1]", "value": "substantial protective effect"}, {"measurement": "Mean daily feed consumption (g)/animal, before treatment", "setting": "[2]; before treatment, lipogenic diet, per 100 g diet: propionyl L-carnitine 2 g, chitosan 1 g, acetyl L-carnitine 2 g, butyryl L-carnitine 0.5 g", "value": "19.8 ± 0.71", "unit": "g"}, {"measurement": "Mean body growth, final weight increase", "setting": "[2]; end of fifteenth day of lipogenic diet, same doses in diet", "value": "60.8 ± 5.2"}, {"measurement": "Mean daily feed consumption (g)/animal, at the end of treatment", "setting": "[2]; end of fifteenth day, lipogenic diet, per 100 g diet: propionyl L-carnitine 2 g, chitosan 1 g, acetyl L-carnitine 2 g, butyryl L-carnitine 0.5 g", "value": "18.9 ± 0.50", "unit": "g"}, {"measurement": "Plasma lipoprotein concentration HDL", "setting": "[3]; Day 0", "value": "24.2 ± 2.4", "unit": "mg/dL"}, {"measurement": "Plasma lipoprotein concentration LDL", "setting": "[3]; Day 0", "value": "9.8 ± 1.9", "unit": "mg/dL"}, {"measurement": "Plasma lipoprotein concentration VLDL", "setting": "[3]; Day 0", "value": "1.4 ± 0.9", "unit": "mg/dL"}, {"measurement": "Plasma lipoprotein concentration HDL", "setting": "[3]; [4]", "value": "26.5 ± 10.4", "unit": "mg/dL"}, {"measurement": "Plasma lipoprotein concentration LDL", "setting": "[3]; [4]", "value": "322 ± 31.4", "unit": "mg/dL"}, {"measurement": "Plasma lipoprotein concentration VLDL", "setting": "[3]; [4]", "value": "832 ± 105", "unit": "mg/dL"}, {"measurement": "Increase in VLDL compared with control animals (in words)", "setting": "[3]; fortieth day, hypercholesterolaemic diet", "value": "much less significant"}]}]}
